From patent US20080153818A1, “METHODS FOR PREVENTING INFLAMMATION DURING SURGERY” (priority 2006, published 2008) come the findings set out here.

For data set [1], the system named is diabetes-induced retinal vascular permeability (STZ rat model). Briefly: STZ diabetic rat retinal vascular permeability, oral gavage. The class given is in vivo. Here is the method: METHODS. Diabetes was induced in male Long-Evans rats with 65 mg/kg streptozotocin (STZ) after an overnight fast. Upon confirmation of diabetes (blood glucose >250 mg/dl), treatment was initiated by oral gavage. Non-diabetic (NDM) and diabetic (DM) rats received oral gavage of either vehicle or RTK inhibitor at 1.5 or 5 mg/kg/d BID. After 2 weeks, jugular vein catheters were implanted 1 day prior to experimentation for the infusion of indicator dye. Retinal vascular permeability, RVP, was measured using Evan's blue albumin permeation (45 mg/kg) after a 2 hour circulation period.

Data set [2] concerns preretinal neovascularization (NV) in the rat model of oxygen-induced retinopathy (OIR). In words: Rat oxygen-induced retinopathy (OIR) model, single intravitreal injection. The data set is classed as in vivo, Sprague-Dawley rats. From the text: METHODS. Pregnant Sprague-Dawley rats were received at 14 days gestation and subsequently gave birth on Day 22±1 of gestation. Immediately following parturition, pups were pooled and randomized into separate litters (n=17 pups/litter), placed into separate shoebox cages inside oxygen delivery chamber, and subjected to an oxygen-exposure profile from Day 0-14 postpartum. Litters were then placed into room air from Day 14/0 through Day 14/6 (days 14-20 postpartum). Additionally on Day 14/0, each pup was randomly assigned as an oxygen-exposed control or into various treatment groups. For those randomized into an injection treatment group: one eye received a 5 μl intravitreal injection of 0.1%, 0.3%, 0.6%, or 1% RTKi and the contralateral eye received a 5 μl intravitreal injection of vehicle. At Day 14/6 (20 days postpartum), all animals in both studies were euthanized.
Immediately following euthanasia, retinas from all rat pups were harvested, fixed in 10% neutral buffered formalin for 24 hours, subjected to ADPase staining, and fixed onto slides as whole mounts. Digital images were acquired from each retinal flat mount that was adequately prepared. Computerized image analysis was used to obtain a NV clockhour score from each readable sample. Each clockhour out of 12 total per retina was assessed for the presence or absence of preretinal NV. […]

The test system of data set [3] is preretinal neovascularization (NV) in the rat OIR model. Briefly: Rat OIR model, oral gavage. The data set is classed as in vivo, Sprague-Dawley rats. As to the method:
Immediately following euthanasia, retinas from all rat pups were harvested, fixed in 10% neutral buffered formalin for 24 hours, subjected to ADPase staining, and fixed onto slides as whole mounts. Digital images were acquired from each retinal flat mount that was adequately prepared. Computerized image analysis was used to obtain a NV clockhour score from each readable sample. Each clockhour out of 12 total per retina was assessed for the presence or absence of preretinal NV. Statistical comparisons using median scores for NV clockhours from each treatment group were utilized in nonparametric analyses. Each noninjected pup represented one NV score by taking the average value of both eyes and was used in comparisons against each dosage group. Because the pups were randomly assigned and no difference was observed between oxygen-exposed control pups from all litters, the NV scores were combined for all treatment groups. P≦0.05 was considered statistically significant.
METHODS. Pregnant Sprague-Dawley rats were received at 14 days gestation and subsequently gave birth on Day 22±1 of gestation. Immediately following parturition, pups were pooled and randomized into separate litters (n=17 pups/litter), placed into separate shoebox cages inside oxygen delivery chamber, and subjected to an oxygen-exposure profile from Day 0 to Day 14 postpartum. Litters were then placed into room air from Day 14/0 through Day 14/6 (days 14-20 postpartum). Additionally on Day 14/0, each pup was randomly assigned as oxygen-exposed controls, vehicle treated, or drug-treated at 1.5, 5, 10 mg/kg, p.o., BID. At Day 14/6 (20 days postpartum), all animals in both studies were euthanized and retina whole mounts were prepared as described in Example 1 above.

In data set [4] the test system is existing laser-induced choroidal neovascularization (CNV). In words: Mouse laser-induced CNV, regression paradigm, oral gavage from day 7. The data set is classed as in vivo. The following applies: 3 mg/kg/day oral from day 7.
For data set [5], the system named is laser-induced choroidal neovascularization (CNV). Briefly: Mouse laser-induced CNV, prevention paradigm, oral gavage. The data set is classed as in vivo. Conditions: for inhibition of CNV (in words): prevention paradigm, 14 days.
Data set [6] has the same test system. Briefly: Mouse laser-induced CNV, prevention, intravitreal injection. The class given is in vivo, C57BL/6J mice. Here is the method: (§1) METHODS. CNV was generated by laser-induced rupture of Bruch's membrane. Briefly, 4 to 5 week old male C57BL/6J mice were anesthetized using intraperitoneal administration of ketamine hydrochloride (100 mg/kg) and xylazine (5 mg/kg) and the pupils of both eyes dilated with topical ocular instillation of 1% tropicamide and 2.5% Mydfin®. One drop of topical cellulose (Gonioscopic®) was used to lubricate the cornea. A hand-held cover slip was applied to the cornea and used as a contact lens to aid visualization of the fundus. Three to four retinal burns were placed in randomly assigned eye (right or left eye for each mouse) using the Alcon 532 nm EyeLite laser with a slit lamp delivery system. The laser burns were used to generate a rupture in Bruch's membrane, which was indicated ophthalmoscopically by the formation of a bubble under the retina. Only mice with laser burns that produced three bubbles per eye were included in the study. Burns were typically placed at the 3, 6, 9 or 12 o'clock positions in the posterior pole of the retina, avoiding the branch retinal arteries and veins.
(§2) Each mouse was randomly assigned into one of the following treatment groups: noninjected controls, sham-injected controls, vehicle-injected mice, or one of three RTKi-injected groups. […]

The test system of data set [7] is existing laser-induced choroidal neovascularization (CNV). In words: Mouse laser-induced CNV, regression of existing CNV, intravitreal injection at day 7. Conditions: single intravitreal injection. The class given is in vivo. As to the method:
as §1, §2
METHODS. […] Choroidal flat mounts were analyzed as described above in Example 3.

[8] abbreviates: NDM and DM groups, oral gavage, 2 weeks.

Molecules are shown by their SMILES.

Consider `Cc1ccc(F)c(NC(=O)Nc2ccc(-c3cccc4[nH]nc(N)c34)cc2)c1` [Compound 86, N-[4-[3-amino-1H-indazol-4-yl]phenyl]-N′-(2-fluoro-5-methylphenyl)urea], for which the “RVP (in words)” value in data set [1] (NDM (non-diabetic) rats, 5 mg/kg/d oral gavage) was “unchanged”. Moreover, in data set [1] (setting [8]), the “systemic or ERG side effects” value is “no observed systemic or ERG side effects” and the “tolerability of oral treatment” value is given as “well tolerated”. The “efficacy against preretinal NV (in words)” value in data set [2] (0.1% treated eyes, intravitreal) is “Efficacy was not observed”. Also, in data set [2] (single intravitreal injection), the “effect on preretinal neovascularization (in words, FIG. 1)” value is recorded as “inhibits”. Also, the “decrease in NV (in words)” value in data set [3] (3 mg/kg/day p.o.) is “did not have a significant decrease”. The “inhibition of preretinal NV (in words)” value in data set [3] (20 mg/kg/day p.o.) is reported as “complete inhibition”. Moreover, in data set [3] (oral gavage), the “effect on preretinal neovascularization (in words, FIG. 2)” value is “prevents”. Besides, in data set [4], the “regression of existing CNV (in words)” value is given as “did not show a significant regression”. In addition, in data set [5] (oral gavage), the “effect on laser-induced CNV (in words, FIG. 6)” value is on record as “inhibits”. In addition, in data set [5] (3 mg/kg/day oral gavage), the “inhibition of CNV (in words)” value is “no significant inhibition”. Also, the “inhibition of CNV (in words)” value in data set [5] (20 mg/kg/d oral gavage) is given as “complete inhibition”. Moreover, the “difference in CNV versus vehicle injected eyes (in words)” value in data set [6] (0.3% RTKi, intravitreal) is recorded as “marginal statistical difference”. In data set [6] (single intravitreal injection), the “effect on laser-induced CNV (in words, FIG. 3)” value is reported as “inhibits”. The “effect on existing laser-induced CNV (in words, FIG. 4)” value in data set [7] is listed as “induces regression”.
